The NIST ThermoML archive (doi:10.1016/j.jct.2016.03.035)
Values joined by “and” are separate entries in the source; they are usually repeats but may differ in a detail not shown here. Equal entries are not always repeated. Numbers after ± are expanded uncertainties.

Assay: xn = mol fraction of the nth substance listed
Details: Gas, Buoyancy - hydrostatic balance with magnetic suspension - two sinkers

C [methane] + CCC
mass density (248.15 K, 96.6 kPa, x1 = 0.2658): 1.7468 ± 0.0038 kg/m3 | mass density (248.15 K, 120.09 kPa, x1 = 0.5069): 1.764 ± 0.0041 kg/m3 and 1.7641 ± 0.0035 kg/m3 and 1.7642 ± 0.0039 kg/m3 | mass density (248.15 K, 141.7 kPa, x1 = 0.2658): 2.5863 ± 0.0041 kg/m3 and 2.5861 ± 0.0039 kg/m3 and 2.5862 ± 0.0038 kg/m3 | mass density (248.15 K, 183.4 kPa, x1 = 0.5069): 2.7166 ± 0.0045 kg/m3 and 2.7162 ± 0.004 kg/m3 and 2.7167 ± 0.0041 kg/m3 | mass density (248.15 K, 184.56 kPa, x1 = 0.2658): 3.3989 ± 0.0042 kg/m3 and 3.3987 ± 0.0043 kg/m3 | mass density (248.15 K, 220.8 kPa, x1 = 0.2658): 4.0983 ± 0.0043 kg/m3 and 4.0981 ± 0.0044 kg/m3 and 4.0981 ± 0.0045 kg/m3 | mass density (248.15 K, 244.4 kPa, x1 = 0.5069): 3.6494 ± 0.0042 kg/m3 and 3.6497 ± 0.0041 kg/m3 and 3.6499 ± 0.0043 kg/m3 | mass density (248.15 K, 251.13 kPa, x1 = 0.2658): 4.6927 ± 0.0046 kg/m3 and 4.6924 ± 0.0045 kg/m3 and 4.6926 ± 0.0045 kg/m3 | mass density (248.15 K, 271.98 kPa, x1 = 0.2658): 5.1061 ± 0.0046 kg/m3 | mass density (248.15 K, 271.99 kPa, x1 = 0.2658): 5.1059 ± 0.0046 kg/m3 | mass density (248.15 K, 275.99 kPa, x1 = 0.2658): 5.186 ± 0.0048 kg/m3 and 5.1858 ± 0.0048 kg/m3 and 5.1858 ± 0.0047 kg/m3 | mass density (248.15 K, 303.31 kPa, x1 = 0.5069): 4.5661 ± 0.0048 kg/m3 and 4.566 ± 0.0049 kg/m3 and 4.5662 ± 0.0045 kg/m3 | mass density (248.15 K, 360.5 kPa, x1 = 0.5069): 5.4703 ± 0.005 kg/m3 and 5.4702 ± 0.0049 kg/m3 and 5.4702 ± 0.0048 kg/m3 | mass density (248.15 K, 424.87 kPa, x1 = 0.5069): 6.5058 ± 0.0054 kg/m3 and 6.5052 ± 0.0054 kg/m3 and 6.5054 ± 0.0051 kg/m3 | mass density (248.16 K, 96.6 kPa, x1 = 0.2658): 1.7471 ± 0.0039 kg/m3 and 1.747 ± 0.0038 kg/m3 | mass density (248.16 K, 390.03 kPa, x1 = 0.7498): 4.4827 ± 0.0048 kg/m3 | mass density (248.16 K, 390.04 kPa, x1 = 0.7498): 4.4825 ± 0.005 kg/m3 and 4.4826 ± 0.0049 kg/m3 | mass density (248.16 K, 500.33 kPa, x1 = 0.7498): 5.7987 ± 0.0056 kg/m3 and 5.7985 ± 0.0054 kg/m3 and 5.7986 ± 0.0055 kg/m3 | mass density (248.16 K, 580.7 kPa, x1 = 0.7498): 6.7716 ± 0.0058 kg/m3 and 6.7717 ± 0.0057 kg/m3 | mass density (248.16 K, 685.07 kPa, x1 = 0.7498): 8.055 ± 0.0061 kg/m3 and 8.0552 ± 0.0061 kg/m3 | mass density (248.16 K, 786.23 kPa, x1 = 0.7498): 9.3205 ± 0.0066 kg/m3 | mass density (248.16 K, 786.24 kPa, x1 = 0.7498): 9.3204 ± 0.0067 kg/m3 and 9.3205 ± 0.0066 kg/m3 | mass density (248.16 K, 835.59 kPa, x1 = 0.7498): 9.9462 ± 0.0069 kg/m3 | mass density (248.16 K, 835.6 kPa, x1 = 0.7498): 9.946 ± 0.0069 kg/m3 and 9.9461 ± 0.0069 kg/m3 | mass density (248.16 K, 859.93 kPa, x1 = 0.7498): 10.2556 ± 0.0071 kg/m3 | mass density (248.16 K, 859.95 kPa, x1 = 0.7498): 10.2561 ± 0.007 kg/m3 and 10.2559 ± 0.007 kg/m3 | mass density (248.16 K, 884.03 kPa, x1 = 0.7498): 10.5636 ± 0.0072 kg/m3 and 10.5634 ± 0.007 kg/m3 and 10.5637 ± 0.0071 kg/m3 | mass density (248.17 K, 276.07 kPa, x1 = 0.7498): 3.1457 ± 0.0044 kg/m3 | mass density (248.17 K, 276.08 kPa, x1 = 0.7498): 3.1457 ± 0.0045 kg/m3 and 3.1455 ± 0.0043 kg/m3 | mass density (273.14 K, 124.74 kPa, x1 = 0.5069): 1.6598 ± 0.0043 kg/m3 and 1.6598 ± 0.0039 kg/m3 | mass density (273.14 K, 258.4 kPa, x1 = 0.5069): 3.4826 ± 0.0039 kg/m3 | mass density (273.15 K, 124.75 kPa, x1 = 0.5069): 1.6598 ± 0.004 kg/m3 | mass density (273.15 K, 167.48 kPa, x1 = 0.2658): 2.7681 ± 0.004 kg/m3 and 2.7679 ± 0.0038 kg/m3 | mass density (273.15 K, 167.49 kPa, x1 = 0.2658): 2.7677 ± 0.0039 kg/m3 | mass density (273.15 K, 218.01 kPa, x1 = 0.5069): 2.9256 ± 0.0047 kg/m3 | mass density (273.15 K, 218.04 kPa, x1 = 0.5069): 2.9262 ± 0.0045 kg/m3 | mass density (273.15 K, 218.06 kPa, x1 = 0.5069): 2.9265 ± 0.0044 kg/m3 | mass density (273.15 K, 242.18 kPa, x1 = 0.2658): 4.0482 ± 0.0043 kg/m3 and 4.0482 ± 0.0045 kg/m3 | mass density (273.15 K, 258.4 kPa, x1 = 0.5069): 3.4831 ± 0.0045 kg/m3 | mass density (273.15 K, 258.41 kPa, x1 = 0.5069): 3.4831 ± 0.0044 kg/m3 | mass density (273.15 K, 262.29 kPa, x1 = 0.5069): 3.5352 ± 0.1 kg/m3 | mass density (273.15 K, 269.26 kPa, x1 = 0.5069): 3.6315 ± 0.1 kg/m3 | mass density (273.15 K, 277.28 kPa, x1 = 0.5069): 3.7427 ± 0.099 kg/m3 | mass density (273.15 K, 309 kPa, x1 = 0.5069): 4.1836 ± 0.1 kg/m3 | mass density (273.15 K, 316.31 kPa, x1 = 0.5069): 4.2857 ± 0.097 kg/m3 | mass density (273.15 K, 321.34 kPa, x1 = 0.5069): 4.3577 ± 0.0047 kg/m3 and 4.3576 ± 0.0047 kg/m3 | mass density (273.15 K, 321.35 kPa, x1 = 0.5069): 4.3574 ± 0.0048 kg/m3 | mass density (273.15 K, 323.08 kPa, x1 = 0.5069): 4.3804 ± 0.096 kg/m3 | mass density (273.15 K, 340.33 kPa, x1 = 0.5069): 4.6223 ± 0.0047 kg/m3 | mass density (273.15 K, 340.34 kPa, x1 = 0.5069): 4.6226 ± 0.0047 kg/m3 | mass density (273.15 K, 340.36 kPa, x1 = 0.5069): 4.6229 ± 0.0046 kg/m3 | mass density (273.15 K, 344.34 kPa, x1 = 0.2658): 5.85 ± 0.0049 kg/m3 and 5.8499 ± 0.0048 kg/m3 and 5.85 ± 0.0048 kg/m3 | mass density (273.15 K, 401.7 kPa, x1 = 0.2658): 6.8907 ± 0.0051 kg/m3 and 6.8903 ± 0.0054 kg/m3 | mass density (273.15 K, 401.71 kPa, x1 = 0.2658): 6.8904 ± 0.0051 kg/m3 | mass density (273.15 K, 402.73 kPa, x1 = 0.5069): 5.504 ± 0.089 kg/m3 | mass density (273.15 K, 406.4 kPa, x1 = 0.2658): 6.9763 ± 0.0071 kg/m3 | mass density (273.15 K, 406.45 kPa, x1 = 0.2658): 6.9765 ± 0.0052 kg/m3 and 6.9764 ± 0.0052 kg/m3 | mass density (273.15 K, 409.05 kPa, x1 = 0.5069): 5.5939 ± 0.09 kg/m3 | mass density (273.15 K, 415.33 kPa, x1 = 0.5069): 5.6832 ± 0.089 kg/m3 | mass density (273.15 K, 430.79 kPa, x1 = 0.2658): 7.4249 ± 0.0055 kg/m3 | mass density (273.15 K, 430.8 kPa, x1 = 0.2658): 7.4251 ± 0.0054 kg/m3 | mass density (273.15 K, 441.05 kPa, x1 = 0.5069): 6.0518 ± 0.007 kg/m3
